In brackets after ≈: the same amount, converted by molar mass.
Key:
Salmonella spp. = assay: Biofilm growth assay, Salmonella spp.; assay type: cell-based; conditions: Table 6, n = 6 isolates; Nutrient Broth, 0.5% glucose, 0.5% Noble agar
Method: The biofilm growth assay was carried out to measure swarming or biofilm spreading on semi-solid agar media in round plates (for example, 100×15 mm), also referred to as Petri dishes. For E. coli, the plates contained LB medium with 0.6% agar and 0.5% glucose. P. aeruginosa plates were made with M8 agar supplemented with 0.2% glucose, 100 μM CaCl2, 1 mM MgSO4, and 0.5% Casamino acids. The agar plates of this assay consisted of 0.4% to 0.7% agar (Bacto or Noble agar), although other media may also be used as described in the literature and known to those skilled in the art. Test compounds at the desired concentration were added to the cooled, autoclaved media. Portions of the media were then poured into the plates (20 mL/plate), and the plates allowed to dry at room temperature for approximately 3 to 4 hours. Alternatively, however, plates may be dried in a laminar flow hood for approximately fifteen to twenty minutes. Overnight cultures were grown in a 37° C. shaker in LB (E. coli) or TSB (P. aeruginosa). Plates were inoculated by placing 5 μL of the appropriate overnight culture in the centers of the plates. The plates then were incubated overnight at 37° C. The area of the zone of spreading bacteria was then measured and replicates are averaged. Percent inhibition was calculated as 100×(area without compound−area with compound)/(area without compound). An active compound was considered that which reduces the area of the spreading biofilm compared to negative controls by greater than or equal to 85%. The values shown in Table 1 are the concentrations of compounds (μg/ml) tested in the biofilm growth assay that reduce the area of the spreading biofilm compared to negative controls by greater than or equal to 85% unless noted differently in Table 1. A > (“greater than” symbol) as used in Table 1 is well understood to those skilled in the art as an indication that the listed concentration was not effective at this concentration.
(§1) Table 6, below, lists the inhibitory concentrations of select compounds and antibiotics in the biofilm growth assay against various gram-negative bacterial biofilms. “N” means the number of isolates of bacteria tested. The biofilm growth assay procedure detailed in Example I, above, was followed. Burkholderia cepacia used media consisting of M9 salts, 100 μM CaCl2, 1 mM MgSO4, and 0.7% citrate in 0.4% Noble agar. Salmonella spp. used media consisting of Nutrient Broth with 0.5% glucose in 0.5% Noble agar.

E. coli biofilms = assay: Biofilm growth assay (spreading biofilm on semi-solid agar), E. coli; assay type: cell-based; design: E. coli (n = 10) inhibitory concentration in the biofilm growth assay: unit: ug/mL; conditions: for E. coli (n = 10) inhibitory concentration in the biofilm growth assay: Table 6, n = 10 isolates; for IC85: Escherichia coli, biofilm growth assay, overnight 37° C., vs negative controls, Tables 1-5, read-out: E. coli: concentration that reduces the area of the spreading biofilm by greater than or equal to 85%
In short: (§2)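 Compound added to semi-solid agar: M8 with 0.2% glucose, 100 μM CaCl2, 1 mM MgSO4, 0.5% Casamino acids (P. aeruginosa) or LB with 0.6% agar, 0.5% glucose (E. coli). Center-inoculated with 5 μL overnight culture, incubated overnight at 37 °C; value is concentration (μg/ml) reducing spreading area ≥85% versus negative controls.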

P. aeruginosa biofilms [1] = assay: Biofilm growth assay (spreading biofilm on semi-solid agar), P. aeruginosa; assay type: cell-based; design: P. aeruginosa (n = 10) inhibitory concentration in the biofilm growth assay: unit: ug/mL; conditions: for P. aeruginosa (n = 10) inhibitory concentration in the biofilm growth assay: Table 6, n = 10 isolates; for IC85: Pseudomonas aeruginosa, biofilm growth assay, vs negative controls, Tables 1-5, read-out: P. aeruginosa: concentration that reduces the area of the spreading biofilm by greater than or equal to 85%
In short: as §2

B. cepacia = assay: Biofilm growth assay, Burkholderia cepacia; assay type: cell-based; conditions: Table 6, n = 10 isolates; M9 salts, 0.7% citrate, 0.4% Noble agar
Method: The biofilm growth assay was carried out to measure swarming or biofilm spreading on semi-solid agar media in round plates (for example, 100×15 mm), also referred to as Petri dishes. For E. coli, the plates contained LB medium with 0.6% agar and 0.5% glucose. P. aeruginosa plates were made with M8 agar supplemented with 0.2% glucose, 100 μM CaCl2, 1 mM MgSO4, and 0.5% Casamino acids. The agar plates of this assay consisted of 0.4% to 0.7% agar (Bacto or Noble agar), although other media may also be used as described in the literature and known to those skilled in the art. Test compounds at the desired concentration were added to the cooled, autoclaved media. Portions of the media were then poured into the plates (20 mL/plate), and the plates allowed to dry at room temperature for approximately 3 to 4 hours. Alternatively, however, plates may be dried in a laminar flow hood for approximately fifteen to twenty minutes. Overnight cultures were grown in a 37° C. shaker in LB (E. coli) or TSB (P. aeruginosa). Plates were inoculated by placing 5 μL of the appropriate overnight culture in the centers of the plates. The plates then were incubated overnight at 37° C. The area of the zone of spreading bacteria was then measured and replicates are averaged. Percent inhibition was calculated as 100×(area without compound−area with compound)/(area without compound). […] A > (“greater than” symbol) as used in Table 1 is well understood to those skilled in the art as an indication that the listed concentration was not effective at this concentration.
as §1

Evaluation of salts = assay type: physicochemical
Method: Evaluation of Compound 62 (Table 4) salt formation was performed. […] As stated herein, the invention also includes compounds and their salts. Evaluation of Compound 64 (Table 4) salt formation was performed. HCl (mono and bis), p-TSA (bis), BSA (bis), MSA (bis), H2SO4 (mono), and H3PO4 (mono) provided salts with crystallinity. […] As stated herein, the invention also includes compounds and their salts.

Pseudomonas syringae = assay: Biofilm growth assay, plant pathogen Pseudomonas syringae; assay type: cell-based; conditions: M8 salts, 0.7% glucose, 0.5% Noble agar, 30° C., 24 to 48 hours
Xanthomonas campestris = assay: Biofilm growth assay, plant pathogen Xanthomonas campestris; assay type: cell-based; conditions: M8 salts, 0.7% glucose, 0.5% Noble agar, 30° C., 24 to 48 hours
P. aeruginosa biofilms [2] = assay: Biofilm Growth Assay with compound in half of the agar and antibiotic disks; assay type: cell-based; conditions: 0.125 μg/ml in agar with colistin 10 μg disks
Method: The Biofilm Growth Assay as described in Example VII was performed in round plates with the compounds of the invention in agar on half of the plate and antibiotic disks placed onto the agar containing the compounds of the invention.
The Biofilm Growth Assay was performed as described in Example VIII. 2 to 4 antibiotic disks were placed onto the agar containing a compound of the invention in a line parallel to the line that separates the two agars in one round plate. Appropriate negative and positive control plates were performed as known to those skilled in the art.

cysB = conditions: as described in U.S. Pat. No. 7,604,978; cited from earlier work
[3] = tested on: Pectobacterium atrosepticum; assay: Biofilm growth assay, plant pathogen Pectobacterium atrosepticum; assay type: cell-based; conditions: M8 salts, 0.7% glucose, 0.5% Noble agar, 30° C., 24 to 48 hours

SMILES	Salmonella spp. (n = 6) inhibitory concentration in the biofilm growth assay (Salmonella spp.)	E. coli (n = 10) inhibitory concentration in the biofilm growth assay (E. coli biofilms)	P. aeruginosa (n = 10) inhibitory concentration in the biofilm growth assay (P. aeruginosa biofilms [1])	B. cepacia (n = 10) inhibitory concentration in the biofilm growth assay (B. cepacia)	IC85 (E. coli biofilms)	IC85 (P. aeruginosa biofilms [1]; overnight 37° C.)	other results
CC(C)(O/N=C(\C(=O)N[C@@H]1C(=O)N2C(C(=O)[O-])=C(C[n+]3ccccc3)CS[C@H]12)c1csc(N)n1)C(=O)O [Ceftazidime, ceftazidime, reference compound]	0.5	0.25	4	>8	–	–	–
CN(C)C[C@]12CCC(C)(C)C[C@H]1C1=CC[C@@H]3[C@@]4(C)Cc5c(n[nH]c5N)C(C)(C)[C@@H]4CC[C@@]3(C)[C@]1(C)CC2 [Compound 64]	–	–	–	–	1 µg/mL (≈ 1.97 µM)	0.5 µg/mL (≈ 0.987 µM)	aqueous solubility of salts compared to freebase (Evaluation of salts; Bis-MSA and mono-H3PO4 salts): increased aqueous solubility
CC1(C)CC[C@]2(C(=O)O)CC[C@]3(C)C(=CCC4[C@@]5(C)Cc6c(n[nH]c6N)C(C)(C)[C@@H]5CC[C@]43C)[C@@H]2C1 (stereo partly drawn) [Compound 1, (4aS,6aS,6bR,13aR)-12-Amino-2,2,6a,6b,9,9,13a-heptamethyl-2,3,4,4a,5,6,6a,6b,7,8,8a,9,11,13,13a,13b,14,15b-octadecahydro-1H-chryseno[1,2-f]indazole-4-a-carboxylic acid]	1	1	1	0.25	1 µg/mL (≈ 2.03 µM)	0.5 µg/mL (≈ 1.01 µM)	concentration inhibiting the spreading biofilm of Pseudomonas syringae (Pseudomonas syringae): 0.03 µg/mL; growth of the spreading P. aeruginosa biofilm (FIG. 1) (P. aeruginosa biofilms [1]; 0.5 μg/ml in agar, overnight 37° C.): prevented the growth; optimal working concentration (P. aeruginosa biofilms [1]; P. aeruginosa biofilm growth assay (FIG. 2 legend)): 0.5 µg/mL; concentration inhibiting the spreading biofilm of Xanthomonas campestris (Xanthomonas campestris): 0.5 µg/mL; combination with colistin at preventing the growth of P. aeruginosa biofilms (FIG. 2) (P. aeruginosa biofilms [2]): synergistic; modulation of cysB and genes under its control (cysB): modulates cysB and genes under its control; concentration inhibiting the spreading biofilm of Pectobacterium atrosepticum [3]: 0.06 µg/mL
NC[C@H]1O[C@H](O[C@H]2[C@H](O)[C@@H](O[C@H]3O[C@H](CO)[C@@H](O)[C@H](N)[C@H]3O)[C@H](N)C[C@@H]2N)[C@H](N)C[C@@H]1O [Tobramycin, tobramcyin, reference compound]	8	16	4	>64	–	–	–
CC[C@H]1OC(=O)[C@H](C)[C@@H](O[C@H]2C[C@@](C)(OC)[C@@H](O)[C@H](C)O2)[C@H](C)[C@@H](O[C@@H]2O[C@H](C)C[C@H](N(C)C)[C@H]2O)[C@](C)(O)C[C@@H](C)CN(C)[C@H](C)[C@@H](O)[C@]1(C)O [Azithromycin, azithromycin]	>16	–	>16	>16	–	–	–
CC1(C)CC[C@]2(C(N)=O)CC[C@]3(C)C(=CCC4[C@@]5(C)Cc6c(n[nH]c6N)C(C)(C)[C@@H]5CC[C@]43C)[C@@H]2C1 (stereo partly drawn) [Compound 62, (4aS,6aS,6bR,13aR)-12-Amino-2,2,6a,6b,9,9,13a-heptamethyl-2,3,4,4a,5,6,6a,6b,7,8,8a,9,11,13,13a,13b,14,15b-octadecahydro-1H-chryseno[1,2-f]indazole-4-a-carboxamide]	–	–	–	–	1 µg/mL (≈ 2.03 µM)	1 µg/mL (≈ 2.03 µM)	physical properties of salts compared to freebase (Evaluation of salts; p-toluenesulfonic acid (mono) and H3PO4 (bis) salts): most desirable physical properties

From patent publication US8324264B1, “Inhibitors of bacterial biofilms and related methods” (Sequoia Sciences, Inc., priority 2011, dated 2012)
